The source of these data is patent publication US20100261706A1, “SUBSTITUTED TETRACYCLIC 1H-INDENO [1,2-B]PYRIDINE-2(5H)-ONE ANALOGS THEREOF AND USES THEREOF” (INOTEK PHARMACEUTICALS CORPORATION, priority 2008, published 2010).

Molecules are shown by their SMILES. Where a name gives a salt, the structure may show the parent alone.

In the test the target is T1, PARP (Mus musculus, UniProt P11103).
T1 construct: PARP Activity in Cultured Macrophages, Using a Whole-Cell Based Assay; endogenous in cells; host or cells: murine RAW macrophages (ATCC)
T1 sequence (P11103 whole entry): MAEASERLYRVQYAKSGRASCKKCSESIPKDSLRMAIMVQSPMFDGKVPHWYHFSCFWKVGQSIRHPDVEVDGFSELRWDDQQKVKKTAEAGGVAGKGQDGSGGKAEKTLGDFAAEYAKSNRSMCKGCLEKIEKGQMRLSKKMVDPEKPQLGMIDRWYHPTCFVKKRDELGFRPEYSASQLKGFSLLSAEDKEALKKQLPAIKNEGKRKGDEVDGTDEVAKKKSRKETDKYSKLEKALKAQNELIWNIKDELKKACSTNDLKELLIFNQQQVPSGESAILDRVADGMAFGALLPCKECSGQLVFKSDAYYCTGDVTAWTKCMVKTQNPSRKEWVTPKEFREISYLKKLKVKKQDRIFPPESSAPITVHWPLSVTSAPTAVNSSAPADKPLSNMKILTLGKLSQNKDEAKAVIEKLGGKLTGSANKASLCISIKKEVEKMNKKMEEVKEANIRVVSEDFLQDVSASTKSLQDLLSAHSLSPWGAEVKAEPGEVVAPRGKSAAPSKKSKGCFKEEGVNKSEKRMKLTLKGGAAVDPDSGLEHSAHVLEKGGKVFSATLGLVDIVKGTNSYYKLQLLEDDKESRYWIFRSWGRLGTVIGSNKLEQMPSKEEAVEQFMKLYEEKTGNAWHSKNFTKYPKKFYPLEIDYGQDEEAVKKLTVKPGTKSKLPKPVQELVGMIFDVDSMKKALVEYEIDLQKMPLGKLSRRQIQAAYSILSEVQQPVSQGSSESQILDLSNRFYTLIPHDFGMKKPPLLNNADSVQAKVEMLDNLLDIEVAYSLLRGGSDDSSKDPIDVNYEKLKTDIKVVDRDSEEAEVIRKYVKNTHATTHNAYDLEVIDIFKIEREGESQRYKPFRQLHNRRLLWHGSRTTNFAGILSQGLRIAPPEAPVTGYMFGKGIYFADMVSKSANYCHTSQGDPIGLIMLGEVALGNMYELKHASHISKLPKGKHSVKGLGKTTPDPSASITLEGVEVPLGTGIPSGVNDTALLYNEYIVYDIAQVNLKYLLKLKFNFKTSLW
In words: PARP activity in cultured macrophages, whole-cell based assay (3H-NAD+ incorporation after hydrogen peroxide). To be noted: murine RAW macrophages, 1 hour pretreatment, hydrogen peroxide 0.5 mM. The protocol:
Effect of Tetracyclic 1H-indeno[1,2-b]pyridine-2(511)-one Analogs on PARP Activity in Cultured Macrophages, Using a Whole-Cell Based Assay
The murine RAW macrophages (ATCC, American Type Culture Collection, Manassas, Va.) were grown in […] (Invitrogen Life Technologies; Carlsbad, Calif.) medium supplemented with 10% heat-inactivated FBS, 2 mM L-glutamine, and 100 U/ml of penicillin and streptomycin. Cells, between passages 5 and 15, were seeded at a density of 250,000 cells/well in 12 well plates and allowed to grow 48 hours before use. Growth medium was changed on the day of use. Cells were treated with a tetracyclic 1H-indeno[1,2-b]pyridine-2(5H)-one analog diluted in a growth medium supplemented with 10% fetal bovine serum (FBS) for 1 hour prior to the addition of hydrogen peroxide (0.5 mM) for a further 25 minutes. For the measurement of PARP activity, media was removed and replaced with 0.5 ml of the assay buffer (56 mM HEPES-pH 7.5, 28 mM KCl, 28 mM NaCl, 2 mM MgCl2, 0.01% digitonin, and 0.5 μCi/ml of ^3H-NAD^+) for 20 minutes. After aspirating the assay buffer, cells were lysed and transferred to eppendorf tubes containing 250 μl of 50% ice-cold trichloroacetic acid (TCA), which were then placed at 4° C. for 4 hours. Samples were centrifuged at 10,000 g for 10 minutes and supernatant removed. The pellets were washed twice with 500 μl of ice-cold 5% w/v TCA. The pellets were then solubilized in 250 μl of NaOH (0.1 M) containing 2% SDS overnight at 37° C. and the PARP activity was then determined by measuring the radioactivity incorporated using a Wallac scintillation counter. The solubilized protein (250 μl) was mixed with 5 ml of scintillation fluid (ScintiSafe Plus, Fisher Scientific) before being counted for 3 minutes. EC50 values were determined from a dose-response curve.
Regarding `O=c1[nH]c2c(c3c1CCCC3)Cc1c(CN3CCCCC3)cccc1-2` [Example 4, 10-(piperidin-1-ylmethyl)-3,4,6,11-tetrahydro-1H-indeno[1,2-c]isoquinolin-5(2H)-one hydrochloride], the EC50 came out at 1.5 nM.
With `O=c1[nH]c2c(c3c1CCCC3)Cc1c(CN3CCCCCC3)cccc1-2` [Example 5, 10-(azepan-1-ylmethyl)-3,4,6,11-tetrahydro-1H-indeno[1,2-c]isoquinolin-5(2H)-one], the EC50 came to 7.8 nM.
Consider `O=c1[nH]c2c(c3c1CCCC3)Cc1c(CN3CCCC3)cccc1-2` [Example 6, 10-(pyrrolidin-1-ylmethyl)-3,4,6,11-tetrahydro-1H-indeno[1,2-c]isoquinolin-5(2H)-one], for which the EC50 is 8.46 nM.
The same measure for `O=c1[nH]c2c(c3c1CCCC3)Cc1c(CN3CCCC3)cccc1-2` [Example 8, 10-(pyrrolidin-1-ylmethyl)-3,4,6,11-tetrahydro-1H-indeno[1,2-c]isoquinolin-5(2H)-one hydrochloride]: 8.5 nM; for `O=c1[nH]c2c(c3c1CCCC3)Cc1c(CN3CCCCCCC3)cccc1-2` [Example 10, 10-(azocan-1-ylmethyl)-3,4,6,11-tetrahydro-1H-indeno[1,2-c]isoquinolin-5(2H)-one]: 37 nM; for `O=c1[nH]c2c(c3c1CCCC3)Cc1c(CN3CCC(F)(F)CC3)cccc1-2` [Example 12, 10-((4,4-difluoropiperidin-1-yl)methyl)-3,4,6,11-tetrahydro-1H-indeno[1,2-c]isoquinolin-5(2H)-one]: 749 nM.
The result for `O=c1[nH]c2c(c3c1CCCC3)Cc1c(CN3CCSC3)cccc1-2` [Example 13, 10-(thiazolidin-3-ylmethyl)-3,4,6,11-tetrahydro-1H-indeno[1,2-c]isoquinolin-5(2H)-one] reads 169 nM; that for `CCOC1CCN(Cc2cccc3c2Cc2c-3[nH]c(=O)c3c2CCCC3)CC1` [Example 14, 10-((4-ethoxypiperidin-1-yl)methyl)-3,4,6,11-tetrahydro-1H-indeno[1,2-c]isoquinolin-5(2H)-one mesylate], 12.7 nM.
The result for `O=c1[nH]c2c(c3c1CCCC3)Cc1c(CN3CC[C@H](F)C3)cccc1-2` [Example 15, (S)-10-((3-fluoropyrrolidin-1-yl)methyl)-3,4,6,11-tetrahydro-1H-indeno[1,2-c]isoquinolin-5(2H)-one] reads 11.7 nM.
For `O=c1[nH]c2c(c3c1CCCC3)Cc1c(CN3CCC(N4CCCCC4)CC3)cccc1-2` [Example 22, 10-(1,4′-bipiperidin-1′-ylmethyl)-3,4,6,11-tetrahydro-1H-indeno[1,2-c]isoquinolin-5(2H)-one dihydrochloride], the EC50 was found to be 7.8 nM.
Regarding `COCCNCc1cccc2c1Cc1c-2[nH]c(=O)c2c1CCCC2` [Example 27, 10-((2-methoxyethylamino)methyl)-3,4,6,11-tetrahydro-1H-indeno[1,2-c]isoquinolin-5(2H)-one], the EC50 turned out to be 16 nM.
The result for `CN(C)Cc1cccc2c1Cc1c-2[nH]c(=O)c2c1CCCC2` [Example 28] reads 35 nM; that for `O=c1[nH]c2c(c3c1CCCC3)Cc1c(CO)cccc1-2` [Example 29, 10-(hydroxymethyl)-3,4,6,11-tetrahydro-1H-indeno[1,2-c]isoquinolin-5(2H)-one], 25 nM.
In the case of `COC(=O)c1ccc2c(c1)Cc1c-2[nH]c(=O)c2c1CCCC2` [Example 30, methyl 5-oxo-2,3,4,5,6,11-hexahydro-1H-indeno[1,2-c]isoquinoline-9-carboxylate], the EC50 was found to be 250 nM.
The result for `O=c1[nH]c2c(c3c1CCCC3)Cc1c(CN3CCNCC3)cccc1-2` [Example 31, 10-(piperazin-1-ylmethyl)-3,4,6,11-tetrahydro-1H-indeno[1,2-c]isoquinolin-5(2H)-one] reads 80 nM; that for `O=c1[nH]c2c(c3c1CCCC3)Cc1cc(CO)ccc1-2` [Example 33, 9-(hydroxymethyl)-3,4,6,11-tetrahydro-1H-indeno[1,2-c]isoquinolin-5(2H)-one], 95 nM.
